One assay concerns cats. Kind of assay: Cat PGE2 model of bladder dysfunction. The format is in vivo. The settings on record: PGE2 cats versus controls (each cat before PGE2 installation is its own control); N=3. The source says:
Pelvic nerve stimulation is also effective in other models of OAB.

The test system of a further assay is rats. Kind of assay: Cystometrograms in the rat PGE2 model of bladder dysfunction. The format is in vivo. The source says: In the following examples, two accepted animal models of bladder dysfunction were used. The first was a PGE2 (prostoglandin E2) model, in which installation of PGE2 into rats induces a hyperactive bladder response.
Animal models of bladder dysfunction need to take into account the fact that rodent (e.g. rat) urination behaviour differs from that of humans. However, the following parameters (as defined in Andersson et al. Neurourology and Urodynamics, 30: 636-646 (2011), which is incorporated herein by reference) are accepted measures against which therapeutic interventions can be assessed (adapted from Andersson et al.): • (a) Baseline pressure: minimum pressure between two micturitions. This parameter is important as an internal control for the procedure. • (b) Intermicturition pressure: mean pressure between two micturitions. The IMP is related to the occurrence of non-voiding contractions (NVCs). The more frequent and with higher amplitude the NVCs, the higher the IMP will be. • (c) Threshold pressure: intravesical pressure immediately before micturition. • (d) Maximum pressure: maximum bladder pressure during a micturition cycle. Also known as peak pressure, maximum voiding pressure, or maximum intravesical pressure. It should be noted that this pressure is not identical with the micturition pressure. The true micturition pressure is the pressure at which fluid starts to flow. • (e) Spontaneous activity (SA) or mean intermicturition oscillatory pressure: intermicturition pressure minus baseline pressure. This parameter is an approximate index of spontaneous bladder contractions between micturitions. SA will increase if there are frequent NVCs between micturitions. • (f) Non-voiding contractions (NVCs): defined as increases in intravesical pressure during cystometry, not associated with release of fluid. […] Since threshold pressure is the pressure at onset of micturition, subtraction of baseline pressure from threshold pressure gives the pressure variation between micturitions. • (l) Voiding efficiency: the voided volume expressed as a percentage of bladder capacity (i.e. voided volume/bladder capacity*100) • (m) External urethral sphincter electromyography: electrodes are placed into the external urethral sphincter and electromyography is recorded during bladder filling and voiding. A number of the parameters above were measured for both PGE2 and SHR rats.
A PE-90 polyethylene catheter was inserted into the bladder lumen through a small incision in the apex of the bladder dome. The bladder catheter was connected an infusion pump and a pressure transducer to measure bladder pressure. Additionally, two PFA-coated platinum-iridium wires (0.0055 inch diameter) were bilaterally inserted percutaneously into the external urethral sphincter (EUS) to record EUS EMG. Alternatively, a bipolar paddle electrode was placed intra-abdominally between the external urethral sphincter (EUS) and pubic symphysis (platinum-iridium contacts facing the urethra) to record EUS EMG.
At the start of an experiment, the bladder was continuously filled with physiological saline at room temperature using an infusion pump with an open urethra for 45 minutes to allow recovery post-surgery. The bladder was subsequently emptied, and CMG's were recorded. A single CMG event was characterized by a quiet period, a filling period, and a voiding period at the end of the voiding event, the infusion pump was turned off. The bladder was then emptied and subsequent CMG's were conducted.
PGE2: Control CMG's were conducted under saline infusion. After 2-3 subsequent control CMG events, the bladder was then infused continuously with PGE2 solution for 1 hour to allow for the bladder to reach drug related steady state. Multiple CMG's were then taken.
CMG parameters recorded were previously described by Andersson et al. as outlined above in example 1: model validation. […]

Structures are written as SMILES. Entries after “also recorded” stand apart in the source; their conditions may differ.

`CCCCC[C@H](O)/C=C/[C@H]1[C@H](O)CC(=O)[C@@H]1C/C=C\CCCC(=O)O` [PGE2, prostoglandin E2]: the bladder capacity result in the assay on cats was “dose dependent reduction”. Further, in the assay on rats (PGE2 rats versus controls), the NVC duration result is given as “decreased; also recorded: reduction”, the bladder capacity entry is on record as “reduction”, the maximum bladder pressure result is recorded as “reduction” and the threshold bladder pressure entry is “reduction”. In addition, the “Δbladder pressure (threshold minus baseline bladder pressure)” value in the assay with rats (PGE2 rats versus controls) is given as “reduction”. In addition, the voiding efficiency entry in the assay with rats (PGE2 rats versus controls (each rat before PGE2 installation is its own control), bladder infused with PGE2 solution for 1 hour) is “decreased voiding efficiency; also recorded: statistically non-significant reduction”. For the same compound, in the assay with rats (PGE2 rats versus controls, filling and voiding phases of a CMG event), the “external urethral sphincter (EUS) EMG activity” value is on record as “abnormal; also recorded: increase”. In addition, the “non-voiding contraction (NVC) magnitude (bladder pressure area under the curve)” value with rats (PGE2 rats versus controls, filling phase) is on record as “decreased magnitude; also recorded: reduction”.
